The test system of the assay is C57BL/6 mice. The assay can be described thus: animal or person. Type of assay: in vivo. As to conditions: Mus musculus, sc, 0.5 h, s.c. administration, 30 min, 55° C. water, read-out: ED50 (mg/kg) at 30 min on C57BL/6 mice in Warm-water Tail-flick Test. (In general: Hot-plate and tail-flick tests time the reaction to a heat stimulus.)

Regarding `CCOC[C@@]1(CCc2ccccn2)CCN(C(C)(C)c2ccc(C)nc2)C1` [Compound 359, (S)-5-(2-(3-(ethoxymethyl)-3-(2-(pyridin-2-yl)ethyl)pyrrolidin-1-yl)propan-2-yl)-2-methylpyridine], the ED50 is less than 10 mg/kg.

Consider `CCOC[C@@]1(CCc2ncccn2)CCN(C(C)(C)c2ccc(C)nc2)C1` [Compound 360, (S)-2-(2-(3-(ethoxymethyl)-1-(2-(6-methylpyridin-3-yl)propan-2-yl)pyrrolidin-3-yl)ethyl)pyrimidine], for which the ED50 is less than 10 mg/kg. Turning to `CCOC[C@@]1(CCc2ccnc(OC)c2)CCN(C(C)(C)c2ccc(C)nc2)C1.Cl` [Compound 361, (S)-4-(2-(3-(ethoxymethyl)-1-(2-(6-methylpyridin-3-yl)propan-2-yl)pyrrolidin-3-yl)ethyl)-2-methoxypyridine HCl], the ED50 was less than 10 mg/kg.

Take `CCOC[C@@]1(CCc2cc3c(s2)CCC3)CCN(C(C)(C)c2ccc(C)nc2)C1.Cl` [Compound 362, (S)-5-(2-(3-(2-(5,6-dihydro-4H-cyclopenta[b]thiophen-2-yl)ethyl)-3-(ethoxy-methyl)pyrrolidin-1-yl)propan-2-yl)-2-methylpyridine HCl]: the ED50 is less than 10 mg/kg. As for `CCOC[C@@]1(CCc2nccs2)CCN(C(C)(C)c2ccc(C)nc2)C1` [Compound 363, (S)-2-(2-(3-(ethoxymethyl)-1-(2-(6-methylpyridin-3-yl)propan-2-yl)pyrrolidin-3-yl)ethyl)thiazole], the figure is less than 10 mg/kg; as for `CCOC[C@@]1(CCc2ccc(F)cc2)CCN(C(C)(C)c2ccc(C)nc2)C1` [Compound 364, (S)-5-(2-(3-(ethoxymethyl)-3-(4-fluoro-phenethyl)pyrrolidin-1-yl)propan-2-yl)-2-methylpyridine], less than 10 mg/kg. Turning to `CCOC[C@@]1(CCc2ccc(F)s2)CCN(C(C)(C)c2ccc(C)nc2)C1` [Compound 365, (S)-5-(2-(3-(ethoxymethyl)-3-(2-(5-fluorothiophen-2-yl)ethyl)pyrrolidin-1-yl)propan-2-yl)-2-methylpyridine], the ED50 is less than 10 mg/kg. As for `CCOC[C@@]1(CCc2ccccc2)CCN(C(C)(C)c2ccc(C)nc2)C1` [Compound 366, (S)-5-(2-(3-(ethoxymethyl)-3-phenethylpyrrolidin-1-yl)propan-2-yl)-2-methylpyridine], the ED50 is less than 10 mg/kg. Take `CCOC[C@@]1(CCc2cc[nH]c(=O)c2)CCN(C(C)(C)c2ccc(C)nc2)C1.Cl` [Compound 367, (S)-4-(2-(3-(ethoxymethyl)-1-(2-(6-methylpyridin-3-yl)propan-2-yl)pyrrolidin-3-yl)ethyl)pyridin-2(1H)-one HCl]: the ED50 was less than 10 mg/kg. Take `Cc1ccc(C(C)(C)N2CC[C@@](CO)(CCc3cc[nH]c(=O)c3)C2)cn1.Cl` [Compound 368, (S)-4-(2-(3-(hydroxymethyl)-1-(2-(6-methylpyridin-3-yl)propan-2-yl)pyrrolidin-3-yl)ethyl)pyridin-2(1H)-one HCl]: the ED50 is less than 10 mg/kg. In the case of `COc1cc(CC[C@]2(CO)CCN(C(C)(C)c3ccc(C)nc3)C2)ccn1.Cl` [Compound 369, (S)-(3-(2-(2-methoxypyridin-4-yl)ethyl)-1-(2-(6-methylpyridin-3-yl)propan-2-yl)pyrrolidin-3-yl)methanol HCl], the ED50 is less than 10 mg/kg. With `CCOC[C@@]1(CCc2ccc(OC)nc2)CCN(C(C)(C)c2ccc(C)nc2)C1.Cl` [Compound 370, (S)-5-(2-(3-(ethoxymethyl)-1-(2-(6-methylpyridin-3-yl)propan-2-yl)pyrrolidin-3-yl)ethyl)-2-methoxypyridine HCl], the ED50 is less than 10 mg/kg.

For the molecule `CCOC[C@@]1(CCc2cccnc2)CCN(C(C)(C)c2ccc(C)nc2)C1` [Compound 371, (S)-5-(2-(3-(ethoxymethyl)-3-(2-(pyridin-3-yl)ethyl)pyrrolidin-1-yl)propan-2-yl)-2-methylpyridine], the ED50 is less than 10 mg/kg. For `CCOC[C@@]1(CCc2ccc(F)cn2)CCN(C(C)(C)c2ccc(C)nc2)C1` [Compound 372, (S)-2-(2-(3-(ethoxymethyl)-1-(2-(6-methylpyridin-3-yl)propan-2-yl)pyrrolidin-3-yl)ethyl)-5-fluoropyridine], the ED50 was less than 10 mg/kg. On to `CCOC[C@@]1(CCc2ccc(C)s2)CCN(C(C)(C)c2ccc(C)nc2)C1` [Compound 373, (S)-5-(2-(3-(ethoxymethyl)-3-(2-(5-methylthiophen-2-yl)ethyl)pyrrolidin-1-yl)propan-2-yl)-2-methylpyridine], for which the ED50 is less than 10 mg/kg.

As to `CCOCC1(CCc2cc(C)sc2C)CCN(C2(c3ccc(C)nc3)CC2)C1` (stereo not shown) [Compound 374, 5-(1-(3-(2-(2,5-dimethylthiophen-3-yl)ethyl)-3-(ethoxy-methyl)pyrrolidin-1-yl)cyclopropyl)-2-methylpyridine], the ED50 was less than 10 mg/kg.

On to `CCOC[C@@]1(CCc2nccc(=O)[nH]2)CCN(C(C)(C)c2ccc(C)nc2)C1` [Compound 375, (S)-2-(2-(3-(ethoxymethyl)-1-(2-(6-methylpyridin-3-yl)propan-2-yl)pyrrolidin-3-yl)ethyl)pyrimidin-4(3H)-one], for which the ED50 is less than 10 mg/kg. As to `CCOC[C@@]1(CCc2ccc(=O)[nH]c2)CCN(C(C)(C)c2ccc(C)nc2)C1.Cl` [Compound 376], the ED50 is less than 10 mg/kg. Consider `CCOC[C@@]1(CCc2nccc(OC)n2)CCN(C(C)(C)c2ccc(C)nc2)C1.Cl` [Compound 377, (S)-2-(2-(3-(ethoxymethyl)-1-(2-(6-methylpyridin-3-yl)propan-2-yl)pyrrolidin-3-yl)ethyl)-4-methoxypyrimidine HCl], for which the ED50 is less than 10 mg/kg. Take `CCOC[C@@]1(CCc2cccs2)CCN(C(C)c2cnn(C)c2C)C1` (stereo partly drawn) [Compound 378, 4-(1-((S)-3-(ethoxymethyl)-3-(2-(thiophen-2-yl)ethyl)pyrrolidin-1-yl)ethyl)-1,5-dimethyl-1H-pyrazole]: the ED50 was less than 10 mg/kg. The result for `CCOC[C@@]1(CCc2cccs2)CCN(C2(c3ccc(C)nc3)CC2)C1` [Compound 379, (S)-5-(1-(3-(ethoxymethyl)-3-(2-(thiophen-2-yl)ethyl)pyrrolidin-1-yl)cyclopropyl)-2-methylpyridine] reads less than 10 mg/kg; that for `CCOC[C@@]1(CCc2ccc(F)cn2)CCN(C(=O)c2ccc(C)nc2)C1` [Compound 380, (S)-(3-(ethoxymethyl)-3-(2-(5-fluoropyridin-2-yl)ethyl)pyrrolidin-1-yl)(6-methylpyridin-3-yl)methanone], greater than 10 mg/kg. As for `COC[C@@]1(CCc2csc(C)c2)CCN(C(=O)c2ccc(C)nc2)C1` [Compound 381, (S)-(3-(methoxymethyl)-3-(2-(5-methylthiophen-3-yl)ethyl)pyrrolidin-1-yl)(6-methylpyridin-3-yl)methanone], the figure is greater than 10 mg/kg; as for `CCOC[C@@]1(CCc2nncn2C)CCN(C(=O)c2ccc(C)nc2)C1` [Compound 382], greater than 10 mg/kg.

Consider `COC[C@@]1(CCc2csc(C)c2)CCN(C(C)(C)c2ccc(C)nc2)C1` [Compound 383, (S)-5-(2-(3-(methoxymethyl)-3-(2-(5-methylthiophen-3-yl)ethyl)pyrrolidin-1-yl)propan-2-yl)-2-methylpyridine], for which the ED50 was less than 10 mg/kg. Take `CCOC[C@@]1(CCc2ccsc2)CCN(Cc2cnn(C)c2)C1.Cl` [Compound 384, (S)-4-((3-(ethoxymethyl)-3-(2-(thiophen-3-yl)ethyl)pyrrolidin-1-yl)methyl)-1-methyl-1H-pyrazole HCl]: the ED50 was less than 10 mg/kg. For the molecule `CCOC[C@@]1(CCc2cscc2C)CCN(Cc2cccnc2)C1` [Compound 385, (S)-3-((3-(ethoxymethyl)-3-(2-(4-methylthiophen-3-yl)ethyl)pyrrolidin-1-yl)methyl)pyridine], the ED50 is less than 10 mg/kg. As for `CCOC[C@@]1(CCc2cccs2)CCN(C(C)(C)c2cnn(C)c2)C1.Cl` [Compound 386, (S)-4-(2-(3-(ethoxymethyl)-3-(2-(thiophen-2-yl)ethyl)pyrrolidin-1-yl)propan-2-yl)-1-methyl-1H-pyrazole HCl], the figure is less than 10 mg/kg.

Consider `CCOC[C@@]1(CCc2ccsc2)CCN(C(C)c2cccnc2)C1` (stereo partly drawn) [Compound 387, 3-(1-((S)-3-(ethoxymethyl)-3-(2-(thiophen-3-yl)ethyl)pyrrolidin-1-yl)ethyl)pyridine], for which the ED50 is less than 10 mg/kg.

For the molecule `CC(C)OC[C@@]1(CCc2cccs2)CCN(Cc2cccnc2)C1` [Compound 388, (S)-3-((3-(isopropoxy-methyl)-3-(2-(thiophen-2-yl)ethyl)pyrrolidin-1-yl)methyl)pyridine], the ED50 was less than 10 mg/kg. The result for `COC[C@@]1(CCc2cccs2)CCN(Cc2cccnc2)C1` [Compound 389, (S)-3-((3-(methoxymethyl)-3-(2-(thiophen-2-yl)ethyl)pyrrolidin-1-yl)methyl)pyridine] reads less than 10 mg/kg; that for `c1ccc(C2(CCc3cccs3)CCN(Cc3cccnc3)C2)nc1` (stereo not shown) [Compound 390, 2-(1-(pyridin-3-ylmethyl)-3-(2-(thiophen-2-yl)ethyl)pyrrolidin-3-yl)pyridine], greater than 10 mg/kg; that for `Cc1ccc(CN2CC[C@@](CCc3ccsc3)(C3CCCO3)C2)cn1.Cl` (stereo partly drawn) [Compound 391, 2-methyl-5-(((3R)-3-(tetrahydrofuran-2-yl)-3-(2-(thiophen-3-yl)ethyl)pyrrolidin-1-yl)methyl)pyridine HCl], less than 10 mg/kg.

Regarding `FC(F)OC[C@@]1(CCc2cccs2)CCN(Cc2cccnc2)C1` [Compound 392, (S)-3-((3-((difluorometh-oxy)methyl)-3-(2-(thiophen-2-yl)ethyl)pyrrolidin-1-yl)methyl)pyridine], the ED50 is less than 10 mg/kg. The result for `CCOC1(CCc2cccs2)CCN(Cc2cccnc2)C1` (stereo not shown) [Compound 393, 3-((3-ethoxy-3-(2-(thiophen-2-yl)ethyl)pyrrolidin-1-yl)methyl)pyridine] reads greater than 10 mg/kg.

For `CCOCC1(CCc2cccs2)CN(Cc2cccnc2)C1` [Compound 394, 3-((3-(ethoxymethyl)-3-(2-(thiophen-2-yl)ethyl)azetidin-1-yl)methyl)pyridine], the ED50 is greater than 10 mg/kg. Take `CCOC[C@@]1(CCc2cccs2)CCN(C2(c3cccnc3)CC2)C1` [Compound 395, (S)-3-(1-(3-(ethoxymethyl)-3-(2-(thiophen-2-yl)ethyl)pyrrolidin-1-yl)cyclopropyl)pyridine]: the ED50 was less than 10 mg/kg.

Values taken from patent publication US11584765B2 (priority 2017, dated 2023).
